The results in this text go back to patent US20230150986A1, “ANTAGONISTS OF THE MUSCARINIC ACETYLCHOLINE RECEPTOR M4” (Vanderbilt University, priority 2019, published 2023).

Each structure is given as a SMILES string. pIC50: −log10 of the molar value.

The assay addresses T1, Human M4 (Homo sapiens, UniProt P08173).
T1 construct: Human or rat M4 cDNA, along with the chimeric G protein Gq,5, were transfected into Chinese hamster ovary (CHO-K1) cells; expressed in transfected cells; host or cells: CHO-K1 (M4/Gqi5/CHO)
T1 sequence (P08173 1-479): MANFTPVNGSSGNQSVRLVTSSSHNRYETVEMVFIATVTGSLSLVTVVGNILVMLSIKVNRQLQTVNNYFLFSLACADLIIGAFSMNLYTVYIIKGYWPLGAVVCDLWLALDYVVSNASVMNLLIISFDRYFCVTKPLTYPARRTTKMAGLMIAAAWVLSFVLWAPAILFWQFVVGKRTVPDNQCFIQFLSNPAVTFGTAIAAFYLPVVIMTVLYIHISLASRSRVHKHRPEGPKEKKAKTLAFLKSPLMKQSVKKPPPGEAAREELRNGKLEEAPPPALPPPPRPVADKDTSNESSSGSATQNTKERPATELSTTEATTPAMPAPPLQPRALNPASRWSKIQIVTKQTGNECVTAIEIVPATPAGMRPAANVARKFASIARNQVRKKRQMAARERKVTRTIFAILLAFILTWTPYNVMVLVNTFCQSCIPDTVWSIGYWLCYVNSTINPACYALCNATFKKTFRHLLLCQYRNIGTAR
Briefly: mAChR M4 cell-based functional assay (calcium flux, decrease of EC80 acetylcholine response). The note with it: for Human M4 Emin: % ACh maximum at 30 μM; for pIC50: CHO-K1 cells with human M4 and Gqi5, EC80 acetylcholine. The method, then:
Human or rat M4 cDNA, along with the chimeric G protein Gq,5, were transfected into Chinese hamster ovary (CHO-K1) cells purchased from the American Type Culture Collection using Lipofectamine2000. M4/Gqi5/CHO cells were grown in Ham's F-12 medium containing 10% heat-inactivated fetal bovine serum (FBS), 20 mM HEPES, 500 μg/mL G^418 sulfate, and 200 μg/mL Hygromycin B.
For high throughput measurement of agonist-evoked increases in intracellular calcium, CHO-K1 cells stably expressing muscarinic receptors were plated in growth medium lacking G418 and hygromycin at 15,000 cells/20 μL/well in Greiner 384-well black-walled, tissue culture (TC)-treated, clear-bottom plates (VWR). Cells were incubated overnight at 37° C. and 5% CO2. The next day, cells were washed using an ELX 405 (BioTek) with assay buffer; the final volume was then aspirated to 20 μL. Next, 20 μL of a 2.3 μM stock of Fluo-4/acetoxymethyl ester (Invitrogen, Carlsbad, Calif.), prepared as a 2.3 mM stock in DMSO and mixed in a 1:1 ratio with 10% (w/v) Pluronic F-127 and diluted in assay buffer, was added to the wells and the cell plates were incubated for 50 min at 37° C. and 5% CO2. Dye was removed by washing with the ELX 405 and the final volume was aspirated to 20 μL. Compound master plates were formatted in a 10 point concentration-response curve (CRC) format (1:3 dilutions) in 100% DMSO with a starting concentration of 10 or 1 mM using a BRAVO liquid handler (Agilent). Test compound CRCs were then transferred to daughter plates (240 nL) using the Echo acoustic plate reformatter (Labcyte, Sunnyvale, Calif.) and then diluted into assay buffer (40 μL) to a 2× stock using a Thermo Fisher Combi (Thermo Fisher Scientific, Waltham, Mass.).
Calcium flux was measured using the Functional Drug Screening System (FDSS) 6000 or 7000 (Hamamatsu Corporation, Tokyo, Japan) as an increase in the fluorescent static ratio. Compounds were applied to cells (20 μL, 2×) using the automated system of the FDSS at 2 seconds into the protocol and the data were collected at 1 Hz. At 143 s, 10 μL of an EC20 concentration of the muscarinic receptor agonist acetylcholine was added (5×), followed by the addition of […] of an EC80 concentration of acetylcholine at the 268 s time point (5×). Agonist activity was analyzed as a concentration-dependent increase in calcium mobilization upon compound addition. Positive allosteric modulator activity was analyzed as a concentration-dependent increase in the EC2o acetylcholine response. Antagonist activity was analyzed as a concentration-dependent decrease in the EC80 acetylcholine response; for the purposes of the tables herein, an IC50 (inhibitory concentration 50) was calculated as a concentration-dependent decrease of the response elicited by an EC80 concentration of acetylcholine. Concentration-response curves were generated using a four-parameter logistical equation in XLFit curve fitting software (IDBS, Bridgewater, N.J.) for Excel (Microsoft, Redmond, Wash.) or Prism (GraphPad Software, Inc., San Diego, Calif.) or the Dotmatics software platform (Dotmatics, Bishop's Stortford, UK).
Compounds were synthesized as described above. Activity (IC50 and Emin) was determined in the mAChR M4 cell-based functional assay as described above and the data are shown in Table 2.
On the technique in general: A change in cytosolic calcium serves as a functional read-out for many receptors and channels.

For orientation: pIC50 means the negative decadic logarithm of the IC50, by convention in mol/L. Turning to `Fc1cc(F)c(F)c(-c2ccc(N[C@H]3C[C@@H]4CN(C[C@H]5COCCO5)C[C@@H]4C3)nn2)c1` [Compound 29, (3aR,5s,6aS)-2-(((S)-1,4-dioxan-2-yl)methyl)-N-(6-(2,3,5-trifluorophenyl)pyridazin-3-yl)octahydrocyclopenta[c]pyrrol-5-amine], the “Human M4 Emin” value is 3% and the pIC50 is 7.32.
For the compound `CC(C)(C)CCN1C[C@H]2C[C@H](Nc3ccc(-c4cc(F)cc(F)c4F)nn3)C[C@H]2C1` [Compound 51, (3aR,5s,6aS)-2-(3,3-dimethylbutyl)-N-(6-(2,3,5-trifluorophenyl)pyridazin-3-yl)octahydrocyclopenta[c]pyrrol-5-amine], the “Human M4 Emin” value stood at 3% and the pIC50 was 7.49.
The like results for `OC1(CN2C[C@H]3C[C@H](Nc4ccc(-c5cc(F)cc(F)c5F)nn4)C[C@H]3C2)C2CC3CC(C2)CC1C3` (stereo partly drawn) [Compound 63, 2-(((3aR,5s,6aS)-5-((6-(2,3,5-trifluorophenyl)pyridazin-3-yl)amino)hexahydrocyclopenta[c]pyrrol-2(1H)-yl)methyl)adamantan-2-ol] were, in that order, 3% and 7.11.
For `[2H]C([2H])(COCC)N1C[C@H]2C[C@H](Nc3ccc(-c4cc(F)cc(F)c4F)nn3)C[C@H]2C1` [Compound 79, (3aR,5s,6aS)-2-(2-ethoxyethyl-1,1-d2)-N-(6-(2,3,5-trifluorophenyl)pyridazin-3-yl)octahydrocyclopenta[c]pyrrol-5-amine] the same measures were 5% and 6.92.
On to `[2H]C([2H])(CCOC)N1C[C@H]2C[C@H](Nc3ccc(-c4cc(F)cc(F)c4F)nn3)C[C@H]2C1` [Compound 80, (3aR,5s,6aS)-2-(3-methoxypropyl-1,1-d2)-N-(6-(2,3,5-trifluorophenyl)pyridazin-3-yl)octahydrocyclopenta[c]pyrrol-5-amine], for which the “Human M4 Emin” value was 8% and the pIC50 was 5.35.
The like results for `Fc1cc(F)c(F)c(-c2ccc(N[C@H]3C[C@@H]4CN(CC5CCCOC5)C[C@@H]4C3)nn2)c1` (single isomer, unassigned) [Compound 24] were, in that order, 3% and 7.86.
The like results for `[2H]C([2H])(N1C[C@H]2C[C@H](Nc3ccc(-c4cc(F)cc(F)c4F)nn3)C[C@H]2C1)C1(CC)CCOCC1` [Compound 33, (3aR,5s,6aS)-2-((4-ethyltetrahydro-2H-pyran-4-yl)methyl-d2)-N-(6-(2,3,5-trifluorophenyl)pyridazin-3-yl)octahydrocyclopenta[c]pyrrol-5-amine] were, in that order, 3% and 7.40.
In the case of `[2H]C([2H])(CC1COC1)N1C[C@H]2C[C@H](Nc3ccc(-c4cc(F)cc(F)c4F)nn3)C[C@H]2C1` [Compound 85, (3aR,5s,6aS)-2-(2-(oxetan-3-yl)ethyl-1,1-d2)-N-(6-(2,3,5-trifluorophenyl)pyridazin-3-yl)octahydrocyclopenta[c]pyrrol-5-amine], the “Human M4 Emin” value was determined as 4% and the negative-log IC50 (pIC50) was 7.18.
The like results for `Fc1cc(F)c(F)c(-c2ccc(N[C@H]3C[C@@H]4CN(CC5CC56CCOCC6)C[C@@H]4C3)nn2)c1` (stereo partly drawn) [Compound 72, (3aR,5s,6aS)-2-((6-oxaspiro[2.5]octan-1-yl)methyl)-N-(6-(2,3,5-trifluorophenyl)pyridazin-3-yl)octahydrocyclopenta[c]pyrrol-5-amine] were, in that order, 3% and 8.68.
For `COc1ccc(OCCN2C[C@H]3C[C@H](Nc4ccc(-c5cc(F)cc(F)c5F)nn4)C[C@H]3C2)cc1` [Compound 59, (3aR,5s,6aS)-2-(2-(4-methoxyphenoxy)ethyl)-N-(6-(2,3,5-trifluorophenyl)pyridazin-3-yl)octahydrocyclopenta[c]pyrrol-5-amine] the same measures were 2% and 7.22.
